The target of data set [1] is JAK1 (Homo sapiens, UniProt P23458). The data set is described as follows: JAK kinase inhibition biochemical assay (Kinase-Glo Plus luminescence), JAK1. Conditions: for IC50: 10 μM ATP. Here is the method:
(§1) JAK kinase inhibition in vitro biochemical assays were performed using Kinase-Glo Plus luminescence kinase assay kit (Promega). Kinase activity was measured by quantitating the amount of ATP remaining in solution following a kinase reaction. Luminescent signal from the assay was correlated with the amount of ATP present and was inversely correlated with the amount of kinase activity. Compounds were diluted in 10% DMSO and 5 μl of the dilution were added to a 50 μl reaction so that the final concentration of DMSO was 1% in all of the reactions. […] All enzymatic reactions were conducted at 30° C. for 45 minutes. The 50 μl reaction mixture contained 40 mM Tris, pH 7.4, 10 mM MgCl2, 0.1 mg/ml BSA, 1 mM DTT, 10 μM ATP, Kinase substrate and the enzyme. After the enzymatic reaction, 50 μl of Kinase-Glo Plus Luminescence kinase assay solution (Promega) were added to each reaction and incubated in the plate for 15 minutes at room temperature. Luminescence signal was measured using a Bio-Tek Synergy 2 microplate reader. Kinase activity was performed in duplicate at each concentration and data were analyzed using Graphpad Prism. The difference between luminescence intensities in the absence of Kinase (Lut) and in the presence of Kinase (Luc) was defined as 100% activity (Lut−Luc). Using luminescence signal (Lu) in the presence of the compound, % activity was calculated as: % activity={Lut−Lu)/(Lut−Luc)}×100%, where Lu=the luminescence intensity in the presence of compound.

In data set [2] the test system is Nalm6 cells. The data set is described as follows: Serial killing assay, T-cell (CD4, CD8) and Nalm6 cell counts by flow cytometry. Type of data set: cell-based, human. Conditions: for persistence of T-cells (CD4 and CD8 counts) / serial killing assessed by Nalm6 cells (flow cytometry): E:T ratio of 1:1, dose titration; for impact on T-cell counts and Nalm6 cell counts: E:T ratio of 1:3, dose titration. Here is the method:
T-cell counts (CD4 and CD8) were assessed by flow cytometry.
Nalm6 cells were assessed by flow cytometry.
T-cell counts (CD4 and CD8) and Nalm6 cells were assessed by flow cytometry.
(In general: In flow cytometry, cells or beads pass a laser one at a time.)

Data set [3] has as its target JAK2 (Homo sapiens, UniProt O60674). The data set is described as follows: JAK kinase inhibition biochemical assay (Kinase-Glo Plus luminescence), JAK2. The settings on record: 10 μM ATP. Here is the method: as §1, with “The 50 μl reaction mixture contained 40 mM Tris, pH 7.4, 10 mM MgCl2, 0.1 mg/ml BSA, 1 mM DTT, 10 μM ATP, Kinase substrate and the enzyme.” left out
On the technique in general: In Kinase-Glo more light means more ATP remaining.

In data set [4] the test system is NALM6.GFP.LUC.CD19 target cells.
Procedure: The percent cytotoxicity to NALM6.GFP.LUC.CD19 target cells was measured by luciferase detection at each round.
In one embodiment, a serial killing assay is a combination of cell killing and how long it takes for CAR T cells to get exhausted under repeated stimulation. In one embodiment, a serial killing assay is a surrogate measure for CAR T cell persistence in vivo.
Data set [5] deals with T1, JAK3 (Homo sapiens, UniProt P52333).
T1 sequence (P52333 1-1124): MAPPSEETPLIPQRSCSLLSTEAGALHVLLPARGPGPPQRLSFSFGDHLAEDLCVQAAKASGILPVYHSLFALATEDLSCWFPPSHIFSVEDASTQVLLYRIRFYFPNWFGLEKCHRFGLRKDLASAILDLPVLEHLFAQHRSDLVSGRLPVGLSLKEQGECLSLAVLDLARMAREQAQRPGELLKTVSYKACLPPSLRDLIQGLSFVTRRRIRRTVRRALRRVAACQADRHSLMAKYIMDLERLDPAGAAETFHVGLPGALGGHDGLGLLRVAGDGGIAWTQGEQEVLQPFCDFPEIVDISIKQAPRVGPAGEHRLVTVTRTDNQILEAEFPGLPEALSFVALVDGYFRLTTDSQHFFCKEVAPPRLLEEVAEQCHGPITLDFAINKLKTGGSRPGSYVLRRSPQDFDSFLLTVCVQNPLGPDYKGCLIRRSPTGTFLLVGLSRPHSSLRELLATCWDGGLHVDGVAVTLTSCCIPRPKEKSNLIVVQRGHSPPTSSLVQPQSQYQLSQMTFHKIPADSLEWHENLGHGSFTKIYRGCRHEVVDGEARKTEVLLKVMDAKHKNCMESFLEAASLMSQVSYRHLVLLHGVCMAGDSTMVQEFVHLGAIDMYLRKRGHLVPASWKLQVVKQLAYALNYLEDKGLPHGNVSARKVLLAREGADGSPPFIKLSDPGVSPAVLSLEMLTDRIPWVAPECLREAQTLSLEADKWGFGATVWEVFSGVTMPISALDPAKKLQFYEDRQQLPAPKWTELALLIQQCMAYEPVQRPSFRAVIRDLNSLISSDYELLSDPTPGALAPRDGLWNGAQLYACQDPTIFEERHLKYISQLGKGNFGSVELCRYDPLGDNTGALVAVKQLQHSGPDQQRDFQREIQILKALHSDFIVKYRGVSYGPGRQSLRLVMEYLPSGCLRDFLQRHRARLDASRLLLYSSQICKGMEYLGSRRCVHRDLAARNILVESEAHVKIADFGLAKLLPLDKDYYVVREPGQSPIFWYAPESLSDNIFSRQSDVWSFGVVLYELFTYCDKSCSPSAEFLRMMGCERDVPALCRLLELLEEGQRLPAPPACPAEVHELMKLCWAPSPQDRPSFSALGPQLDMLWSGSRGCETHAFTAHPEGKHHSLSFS
The data set is described as follows: JAK kinase inhibition biochemical assay (Kinase-Glo Plus luminescence), JAK3. Here is the method: as §1, with “The 50 μl reaction mixture contained 40 mM Tris, pH 7.4, 10 mM MgCl2, 0.1 mg/ml BSA, 1 mM DTT, 10 μM ATP, Kinase substrate and the enzyme.” left out

In data set [6] the test system is macrophage. The data set is described as follows: Macrophage polarization, M1/M2 phenotypic markers by flow cytometry. It is filed as cell-based.
For data set [7], the system named is monocyte-derived macrophages. The data set is described as follows: Macrophage differentiation and M1/M2 polarization (surface markers by flow cytometry). The settings on record: for CD209 surface expression in M2 polarized macrophage cultures: compared to normal M2 polarization culture conditions; for skewing of macrophage phenotype amidst M2 polarizing conditions (M1 markers CD38 and HLA-DR): separate experiment. Type of data set: cell-based, human. Here is the method: Monocytes were prepared from healthy donor PBMCs by negative selection for CD14+ monocytes using MACS (these cryopreserved monocytes provided by […], Alameda, CA) at >95% purity. Monocytes were differentiated into macrophages (M0) using traditional methods. In brief, 1×10^6 monocytes were plated into 12-well plate wells in a total volume of 2 mL macrophage culture media (MCM) (ImmunoCult™-SF Macrophage medium, Stem Cell Technologies) containing 50 ng/ml M-CSF and cultured for 6 days at 37° C./5% CO2. On day 2 of differentiation, cultures were replenished with fresh media and M-CSF. On day 6, a portion of the wells containing differentiated macrophages were replenished with 2 ml of fresh MCM containing 50 ng/ml M-CSF, 100 ng/ml LPS, 20 ng/ml IFNg and cultured for another 48 hours to polarize the macrophage to an M1 macrophage phenotype. Also on day 6, another portion of the wells containing differentiated macrophages were replenished with 2 ml of fresh R10 containing 50 ng/ml M-CSF and 20 ng/ml IL-4 and cultured for another 48 hours to polarize the macrophages to M2 macrophage phenotype. On day 8, all putative polarized macrophages were assessed for M1 and M2-specific surface markers using relevant M1/M2 immunophenotyping panels and flow cytometry. The cell surface markers used to assess monocytes, M0, M1 and M2 macrophage phenotypes included CD14, CD32, CD38, CD80, CD86, CD68, CD163, CD200R1, CD204, CD206, CD209, and HLA-DR.

JAK1, sequence (P23458 whole entry): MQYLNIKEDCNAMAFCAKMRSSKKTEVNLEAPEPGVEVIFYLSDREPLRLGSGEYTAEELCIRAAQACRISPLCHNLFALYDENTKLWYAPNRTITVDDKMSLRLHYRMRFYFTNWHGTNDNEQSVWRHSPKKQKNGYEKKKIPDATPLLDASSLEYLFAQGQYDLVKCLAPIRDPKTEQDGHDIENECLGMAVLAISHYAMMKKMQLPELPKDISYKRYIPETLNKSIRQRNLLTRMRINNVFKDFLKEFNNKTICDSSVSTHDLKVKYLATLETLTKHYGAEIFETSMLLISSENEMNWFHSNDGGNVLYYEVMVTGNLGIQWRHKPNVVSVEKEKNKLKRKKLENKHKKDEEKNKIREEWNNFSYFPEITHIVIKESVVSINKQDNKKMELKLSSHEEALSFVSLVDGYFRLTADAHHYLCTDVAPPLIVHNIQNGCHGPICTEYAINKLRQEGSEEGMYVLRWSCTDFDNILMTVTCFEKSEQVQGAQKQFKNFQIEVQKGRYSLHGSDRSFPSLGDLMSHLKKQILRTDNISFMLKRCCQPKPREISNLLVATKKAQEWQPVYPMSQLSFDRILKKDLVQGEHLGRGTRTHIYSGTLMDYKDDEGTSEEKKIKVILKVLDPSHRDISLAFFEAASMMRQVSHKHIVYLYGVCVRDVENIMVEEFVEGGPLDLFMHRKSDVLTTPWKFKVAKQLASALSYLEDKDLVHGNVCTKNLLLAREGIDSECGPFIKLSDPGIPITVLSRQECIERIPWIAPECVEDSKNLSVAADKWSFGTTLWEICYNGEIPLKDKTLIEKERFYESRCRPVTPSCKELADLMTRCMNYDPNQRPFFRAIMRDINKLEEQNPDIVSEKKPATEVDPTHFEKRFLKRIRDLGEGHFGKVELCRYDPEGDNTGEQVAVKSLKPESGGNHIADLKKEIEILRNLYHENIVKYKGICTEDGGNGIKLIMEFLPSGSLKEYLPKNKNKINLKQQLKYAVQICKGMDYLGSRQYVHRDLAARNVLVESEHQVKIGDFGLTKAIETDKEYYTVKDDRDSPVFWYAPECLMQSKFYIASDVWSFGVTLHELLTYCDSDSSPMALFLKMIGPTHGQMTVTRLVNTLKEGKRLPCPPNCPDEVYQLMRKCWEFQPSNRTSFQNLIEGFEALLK
JAK2, sequence (O60674 whole entry): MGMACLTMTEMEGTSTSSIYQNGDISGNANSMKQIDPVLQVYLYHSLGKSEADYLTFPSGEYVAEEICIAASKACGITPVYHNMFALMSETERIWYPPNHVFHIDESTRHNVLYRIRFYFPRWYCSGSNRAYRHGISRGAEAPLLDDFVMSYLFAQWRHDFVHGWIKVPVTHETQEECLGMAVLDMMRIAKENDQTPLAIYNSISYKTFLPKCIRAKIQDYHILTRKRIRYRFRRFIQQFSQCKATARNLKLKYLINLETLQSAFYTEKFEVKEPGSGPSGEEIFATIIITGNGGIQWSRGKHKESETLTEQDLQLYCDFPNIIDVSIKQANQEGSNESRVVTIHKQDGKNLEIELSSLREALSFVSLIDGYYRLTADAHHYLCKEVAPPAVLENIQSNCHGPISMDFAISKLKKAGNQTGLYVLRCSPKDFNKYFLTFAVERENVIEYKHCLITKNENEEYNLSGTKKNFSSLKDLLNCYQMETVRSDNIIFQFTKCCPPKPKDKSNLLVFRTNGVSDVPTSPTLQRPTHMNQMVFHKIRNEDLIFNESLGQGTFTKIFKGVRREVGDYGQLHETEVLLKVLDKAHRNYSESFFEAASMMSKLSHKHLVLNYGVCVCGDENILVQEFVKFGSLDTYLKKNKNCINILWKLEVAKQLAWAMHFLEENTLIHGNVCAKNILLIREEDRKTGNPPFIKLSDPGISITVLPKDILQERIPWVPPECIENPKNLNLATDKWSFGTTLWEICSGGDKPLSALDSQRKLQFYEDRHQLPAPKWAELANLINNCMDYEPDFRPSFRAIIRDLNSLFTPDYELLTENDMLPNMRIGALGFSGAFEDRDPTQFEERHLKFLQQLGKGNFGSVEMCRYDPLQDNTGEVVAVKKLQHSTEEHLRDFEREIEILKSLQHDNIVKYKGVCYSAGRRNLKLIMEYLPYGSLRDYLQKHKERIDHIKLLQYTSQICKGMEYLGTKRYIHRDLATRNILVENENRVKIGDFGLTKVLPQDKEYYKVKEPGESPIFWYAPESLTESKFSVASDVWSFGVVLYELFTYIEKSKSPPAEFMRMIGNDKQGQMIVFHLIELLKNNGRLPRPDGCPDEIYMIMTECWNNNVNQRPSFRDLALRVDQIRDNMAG

For the compound `Nc1nc2cccc(-c3ccc(CN4CCS(=O)(=O)CC4)cc3)n2n1` [GS-829845], in data set [1], the “less potency than parent compound filgotinib” value is on record as “about 10 fold” and the IC50 (as a rule, the concentration at which inhibition is half-maximal) was 448 nM. Further, in data set [2], the “persistence of T-cells (CD4 and CD8 counts)” value is “Improved persistence”; the “serial killing assessed by Nalm6 cells (flow cytometry)” value was “enhance serial killing in a dose-dependent manner”; the “impact on T-cell counts and Nalm6 cell counts” value was “not impacted”. The half-maximal inhibitory concentration (IC50) in data set [3] is 2160 nM.

Consider `C[C@@H]1C[C@H]2[C@@H]3CCC4=CC(=O)C=C[C@]4(C)[C@@]3(F)[C@@H](O)C[C@]2(C)[C@@]1(O)C(=O)CO` [dexamethasone], for which the “impact on CAR-T serial killing (percent cytotoxicity)” value in data set [4] was “differential impacts”.

With `O=C(Nc1nc2cccc(-c3ccc(CN4CCS(=O)(=O)CC4)cc3)n2n1)C1CC1` [filgotinib], the “activity against JAK3” value in data set [5] (biochemical assay) is on record as “limited activity”. Besides, in data set [6], the macrophage polarization result is recorded as “promotes polarization of macrophages from M2 to M1 macrophages”. For the same compound, in data set [2], the “persistence of T-cells (CD4 and CD8 counts)” value is “Improved persistence”; the “serial killing assessed by Nalm6 cells (flow cytometry)” value is “enhance serial killing in a dose-dependent manner”; the “impact on T-cell counts and Nalm6 cell counts” value was “not impacted”. In addition, the “inhibition of an M2 polarized phenotype” value in data set [7] (10 μM, compared to no drug/normal M2 polarization culture conditions) is “stronger inhibition of an M2 polarized phenotype than Tofacitinib”. Moreover, in data set [7] (10 μM), the “CD209 surface expression in M2 polarized macrophage cultures” value was “No reduction”. Moreover, the “influence on inhibiting M2 polarization by period of use” value in data set [7] (10 μM, during 6-day differentiation versus only during M2 polarization) was “stronger influence on inhibiting M2 polarization when used during the 6-day macrophage differentiation”. In data set [7] (10 μM, used during both macrophage differentiation and M2 polarization), the “inhibiting the formation of an M2 polarized phenotype” value is given as “even stronger”. In addition, the “skewing of macrophage phenotype amidst M2 polarizing conditions (M1 markers CD38 and HLA-DR)” value in data set [7] was “skewed macrophages away from M2 towards M1 phenotype”.

Take `N#CCC1(n2cc(-c3ncnc4[nH]ccc34)cn2)CN(C2CCN(C(=O)c3ccnc(C(F)(F)F)c3F)CC2)C1` [itacitinib]: the figures for the IC50 in data set [5] (10 μM ATP), in data set [1] and in data set [3] were 921 nM, 13 nM and 69 nM, respectively.

Consider `C[C@@H]1CCN(C(=O)CC#N)C[C@@H]1N(C)c1ncnc2[nH]ccc12` [tofacitinib], for which the “CD209 surface expression in M2 polarized macrophage cultures” value in data set [7] (10 μM) is on record as “No reduction”. Besides, the “skewing of macrophage phenotype amidst M2 polarizing conditions (M1 markers CD38 and HLA-DR)” value in data set [7] is recorded as “skewed macrophages away from M2 towards M1 phenotype”.

The values above are taken from patent US12252701B2, “Chimeric antigen receptor T cell therapy” (KITE PHARMA, INC., priority 2020, dated 2025).
